For one data set, the system named is transplanted rice. The experiment in a line: Test Example 1: effect on crop, application before weed generation under submerged conditions (Table 16, symbol a). The settings on record: 320 g/ha applied herbicide. The format is in vivo. The text has this: [Test Example 1] Herbicidal Activity Test by Application before Weed Generation under Submerged Conditions After alluvial soil was placed into 1/10000 are of Wagner pot, water was poured and mixed to form a submerged condition having a water depth of 4 cm. Seeds of late watergrass, Japanese bulrush, and oval-leafed pondweed were sowed in a mixed manner in the aforementioned pot, and then 2.5 leaf stage rice plant seedlings were transplanted thereto. On the day of sowing seeds, the emulsion agent of the compound of the present invention prepared according to Formulation Example 2 was diluted with water so as to achieve a predetermined herbicide amount, and the diluted emulsion agent was applied to the surface of the water. The pot was placed in a greenhouse at 25° C. to 30° C. for growth of the plants. Three weeks after the herbicide application, the effect of the herbicide on each plant was evaluated according to the following criteria. Evaluation Criteria 5: Herbicidal rate of 90% or more (almost completely withered) 4: Herbicidal rate of 70% or more and less than 90% 3: Herbicidal rate of 40% or more and less than 70% 2: Herbicidal rate of 20% or more and less than 40% 1: Herbicidal rate of 5% or more and less than 20% 0: Herbicidal rate of 5% or less (almost no effect)

Data set [1] relates to soybean. In words: Test Example 4: effect on crop by soil treatment (Table 19, symbol d). In kind it is in vivo. The method, boiled down: (§1)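 Scoring uses the grading scale of an earlier test, three weeks post-application. Treatment consists of spraying a diluted emulsion formulation across the surface of sterilized diluvial soil in which seeds are buried near 1.5 cm deep; boxes are kept in a greenhouse between 25° C. and 30° C.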

The subject of data set [2] is wheat. In words: Test Example 4: effect on crop by soil treatment (Table 19, symbol e). In kind it is in vivo. The method, boiled down: as §1
Data set [3] concerns rapeseed. In words: Test Example 4: effect on crop by soil treatment (Table 19, symbol g). In kind it is in vivo. The method, boiled down: as §1
Data set [4] deals with soybean. In words: Test Example 5: effect on crop by foliage application, plastic box (Table 20, symbol d). In kind it is in vivo. The note with it: 320 g/ha. The method, boiled down:
(§2)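 Post-emergence foliar test in sterilized diluvial soil. Compound applied as water-diluted emulsion at a predetermined rate to 14-day-old plants; evaluation at three weeks.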

Data set [5] deals with wheat. In words: Test Example 5: effect on crop by foliage application, plastic box (Table 20, symbol e). The note with it: 320 g/ha. In kind it is in vivo. The method, boiled down:
as §2

In data set [6] the test system is rapeseed. The experiment in a line: Test Example 5: effect on crop by foliage application, plastic box (Table 20, symbol g). The note with it: 320 g/ha. In kind it is in vivo. An outline of the steps:
as §2

[7] abbreviates: amount of applied herbicide 320 g/ha.
Setting [8] is: evaluated three weeks after application.

By melting point is commonly meant the temperature, or range, at which the solid turns liquid. `Cc1nn(C)c(=O)c(-c2c(-c3ccc(C#N)cc3)sc3ccccc23)c1O` [Compound No. 1-045, 5-hydroxy-2,6-dimethyl-4-(2-(4-cyanophenyl)benzo[b]thiophen-3-yl)pyridazin-3(2H)-one]: the melting point was 240 to 242 °C. In the data set on transplanted rice, the “Effect on crop a: transplanted rice (grade 0-5)” value (shortened to “Effect … (grade 0-5)”) was 0 (Herbicidal rate of 5% or less (almost no effect)). In addition, the “effect rating on crop, d: soybean” value with soybean [1] (setting [7]) was 3 (Herbicidal rate of 40% or more and less than 70%). Besides, the “effect rating on crop, e: wheat” value with wheat [2] (setting [7]) is given as 0 (Herbicidal rate of 5% or less (almost no effect)). In addition, the “effect rating on crop, g: rapeseed” value in the data set with rapeseed [3] (setting [7]) is on record as 5 (Herbicidal rate of 90% or more (almost completely withered)). Further, in the data set with soybean [4] (three weeks after application), the “effect on crop grade, d: soybean” value is 1 (Herbicidal rate of 5% or more and less than 20%). Also, in the data set with wheat [5] (three weeks after application), the “effect on crop grade, e: wheat” value was 0 (Herbicidal rate of 5% or less (almost no effect)). Also, the “effect on crop grade, g: rapeseed” value in the data set with rapeseed [6] (three weeks after application) was 5 (Herbicidal rate of 90% or more (almost completely withered)).

Consider `Cc1nn(C)c(=O)c(-c2c(-c3ccc(Cl)cc3)sc3ccc(F)cc23)c1O` [Compound No. 2-010, 4-(2-(4-chlorophenyl)-5-fluorobenzo[b]thiophen-3-yl)-5-hydroxy-2,6-dimethylpyridazin-3(2H)-one], for which the melting point was 258 to 259 °C. Further, in the data set on transplanted rice, the “Effect … (grade 0-5)” value is on record as 0 (Herbicidal rate of 5% or less (almost no effect)). In addition, in the data set on soybean [1] (320 g/ha), the “effect rating on crop, d: soybean” value is on record as 0 (Herbicidal rate of 5% or less (almost no effect)). Moreover, the “effect rating on crop, e: wheat” value with wheat [2] (320 g/ha) was 0 (Herbicidal rate of 5% or less (almost no effect)). In addition, the “effect rating on crop, g: rapeseed” value in the data set on rapeseed [3] (320 g/ha) is 3 (Herbicidal rate of 40% or more and less than 70%). Further, the “effect on soybean (d)” value with soybean [4] (3 weeks after application) is 3 (Herbicidal rate of 40% or more and less than 70%). In the data set on wheat [5] (3 weeks after application), the “effect on wheat (e)” value is given as 0 (Herbicidal rate of 5% or less (almost no effect)). In the data set with rapeseed [6] (3 weeks after application), the “effect on rapeseed (g)” value was 5 (Herbicidal rate of 90% or more (almost completely withered)).

`COc1cc(F)ccc1-c1sc2ccc(Cl)cc2c1-c1c(O)c(C)nn(C)c1=O` [Compound No. 2-095, 4-(5-chloro-2-(4-fluoro-2-methoxyphenyl)benzo[b]thiophen-3-yl)-5-hydroxy-2,6-dimethylpyridazin-3(2H)-one] displayed a melting point of 221 to 223 °C. The “Effect … (grade 0-5)” value with transplanted rice was 0 (Herbicidal rate of 5% or less (almost no effect)). In the data set on soybean [1] (320 g/ha), the “effect rating on crop, d: soybean” value is given as 0 (Herbicidal rate of 5% or less (almost no effect)). The “effect rating on crop, e: wheat” value in the data set on wheat [2] (320 g/ha) is reported as 0 (Herbicidal rate of 5% or less (almost no effect)). Besides, in the data set with rapeseed [3] (320 g/ha), the “effect rating on crop, g: rapeseed” value is 1 (Herbicidal rate of 5% or more and less than 20%). Moreover, in the data set with soybean [4] (setting [8]), the “effect on crop, d: soybean” value was 4 (Herbicidal rate of 70% or more and less than 90%). Also, in the data set with wheat [5] (setting [8]), the “effect on crop, e: wheat” value was 1 (Herbicidal rate of 5% or more and less than 20%). Moreover, the “effect on crop, g: rapeseed” value in the data set with rapeseed [6] (setting [8]) was 5 (Herbicidal rate of 90% or more (almost completely withered)).

These data come from patent US20230085307A1, “PYRIDAZINONE COMPOUND AND HERBICIDE” (NISSAN CHEMICAL CORPORATION, priority 2019, published 2023).
